From patent publication US11547652B2, “Combination products and cosmetic compositions for controlling skin disorders and skin aging that affect keratinocytes and/or fibroblasts and the dermis” (NUTRICOS Technologies, priority 2014, dated 2023)

Legend:
[1] = system: NHEK cells (Normal Human Epidermal Keratinocytes); experiment: Hyaluronic acid production by NHEK cells (ELISA on supernatant); type: cell-based; settings: 72 hours of cultivation, hyaluronic acid 40 to 6000 ng/ml, glucosamine sulfate 0.25 to 25 μg/ml, FIG. 1
Description: Normal human epidermal keratinocytes were cultured at 37° C. under 5% CO2 in a medium keratinocyte-SFM culture, supplemented with epidermal growth factor (EGF; 0.25 ng/ml), a pituitary extract (25 μg/ml) and an antibiotic (gentamicin 25 μg/ml) in 96-well plates for 24 h without stimulation. Glucosamine and/or hyaluronic acid are then added to the cultivation medium alone or in combination at concentrations of 40 to 6000 ng/ml hyaluronic acid and 0.25 to 25 μg/ml to glucosamine sulfate. After 72 hours of cultivation under these conditions, the supernatant was collected to quantify the hyaluronic acid produced by the cells using an ELISA Duoset Hyaluronan kit marketed by the company R & D System (DY3614 reference).

[2] = system: NHDF cells (Normal Human Dermal Fibroblasts); experiment: Hyaluronic acid production by NHDF cells (ELISA on supernatant); type: cell-based; settings: 72 hours, glucosamine 0.1 to 100 μg/ml, hyaluronic acid 40 to 6000 ng/ml, source of collagen and hyaluronic acid 4 to 4000 ng/ml, FIG. 2
Description: Normal human dermal fibroblasts (NHDF) were cultured at 37° C. under 5% CO2 in a DMEM culture medium supplemented with glutamine (2 mM); calf serum (1%), penicillin (50 U/ml) and streptomycin ([…]). Glucosamine (0.1 to 100 μg/ml) and/or hyaluronic acid (from 40 to 6000 ng/ml) and/or a source of collagen and hyaluronic acid (in a ratio of between 0.07% and 15%) at concentrations ranging from 4 to 4000 ng/ml were then added to the cultivation medium alone or in combination. After 72 hours of cultivation under these conditions, the supernatant was collected to quantify the hyaluronic acid produced by the cells using an ELISA Duoset Hyaluronan kit marketed by the company R & D System (DY3614 reference).

hyaluronic acid
hyaluronic acid production by human keratinocytes in vitro [1]: does not stimulate the synthesis of hyaluronic acid | hyaluronic acid production by human fibroblasts in vitro [2]: did not stimulate the synthesis of hyaluronic acid

N[C@H]1C(O)O[C@H](CO)[C@@H](O)[C@@H]1O.O=S(=O)(O)O (stereo partly shown) [glucosamine sulfate]
hyaluronic acid production by human keratinocytes in vitro [1]: induction of hyaluronic acid production | hyaluronic acid production by human fibroblasts in vitro [2]: lack of stimulation
